Assays:
Format in all cases: physicochemical
[1] = Ligand protonation constants by pH-potentiometric titration; conditions: I = 0.15 M NaCl; 25 °C
Method: (§1) Metal stock solutions were prepared from the highest analytical grade chemicals, and their concentration was determined by complexometric titration with standardized Na2H2EDTA, using xylenol orange indicator in the presence of urotropine buffer (ZnCl2 and MnCl2); Eriochrome black T indicator in the presence of ammonium acetate buffer (CaCl2) or murexide indicator in ammonium solution (CuCl2). The concentration of the ligand stock solutions was determined by pH-potentiometric titrations (the difference between two consecutive inflection points of the ligand titration curve corresponds to two (L2) or one (L3) ligand equivalents). To determine the protonation constants of the ligand and stability constants of the metal complexes with selected divalent metal ions, pH-potentiometric titrations were carried out with 0.1 M NaOH at 2 mM ligand concentration, in the absence (for ligand protonation constants) or in the presence of one equivalent of metal ion (for stability constants). During the titration, the waiting time was 2 min between successive points (V0 = 5 mL). The temperature (25.0 ± 0.1 °C) was controlled by a circulating water bath. The ionic strength was set to I = 0.15 M NaCl. All titrations were performed under a nitrogen atmosphere to avoid the effect of CO2. Titrations were carried out in the pH range from 1.8 (L3) or 2.0 (L2) (after the addition of 1 M HCl solution to the starting ligand solution in the titration cell) to pH 11 (or until precipitation of the metal hydroxide). All pH-potentiometric titrations were performed using a 785 DMP Titrino titration workstation with a combined electrode (Metrohm). The p[H] (p[H] = −log[H+], concentration in molarity) was measured in each titration with a combined pH glass electrode (Metrohm) filled with 3 M KCl. The electrode was calibrated in hydrogen ion concentration by titration of HCl with KOH in 0.1 M electrolyte solution.[37] A plot of potential versus p[H] allows determination of the electrode standard potential (E°) and the slope factor (f).
The protonation constants of the ligand (log Ki^H) are defined as follows [drawing 1] where i = 1, 2, ··· and [Hi–1L] and [H^+] are the equilibrium concentrations of the ligand (i = 1), its protonated forms (i = 2, ···), and the hydrogen ion. The stability (KML) and the protonation (KMHiL) constants for the metal complexes are defined as follows [drawing 2] [drawing 3] For the calculations of the equilibrium constants, the HYPERQUAD program was used.[38] The number of fitted data pairs was between 190 and 240. The ionic product of water at 25 °C and 0.1 M ionic strength is pKw = 13.77.[39] Fixed values were used for pKw, ligand acidity constants, and total concentrations of metal, ligand, and acid. […]

[2] = Stability constants of Ca(II) complexes by pH-potentiometry; conditions: I = 0.15 M NaCl, 25 °C
Method: as §1
(§2) The protonation constants of the ligand (log Ki^H) are defined as follows [drawing 1] where i = 1, 2, ··· and [Hi–1L] and [H^+] are the equilibrium concentrations of the ligand (i = 1), its protonated forms (i = 2, ···), and the hydrogen ion. The stability (KML) and the protonation (KMHiL) constants for the metal complexes are defined as follows [drawing 2] [drawing 3] For the calculations of the equilibrium constants, the HYPERQUAD program was used.[38] The number of fitted data pairs was between 190 and 240. The ionic product of water at 25 °C and 0.1 M ionic strength is pKw = 13.77.[39] Fixed values were used for pKw, ligand acidity constants, and total concentrations of metal, ligand, and acid. All values and errors (one standard deviation) reported are at least the average of two independent experiments.

[3] = Stability constants of Mn(II) complexes by pH-potentiometry, pMn and species distribution; conditions: for log KML / log KML(OH): Mn(II), I = 0.15 M NaCl, 25 °C; for pMn: pMn = −log[Mn(II)]free at pH 7.4, cMn = clig = 10^–5 M
Method: as §1, §2
To obtain further information about the impact of a given pendant arm, it is interesting to calculate pMn values (pMn = −log[Mn(II)]free at pH 7.4, cMn = clig= 10^–5 M) which provide a more direct comparison of MnL stabilities, independently of differences in protonation constants (Table 4). […] Nevertheless, the too large, 15-membered macrocyclic cavity combined with a lower number of pendant arms provide ca. 2 orders of magnitude lower stability for Mn(II) complexation as compared to the 12-membered pyclen derivatives (Table 4).

[4] = Stability constants of Zn(II) complexes by pH-potentiometry; conditions: I = 0.15 M NaCl, 25 °C
Method: as §1, §2

[5] = Stability constants of Cu(II) complexes by pH-potentiometry; conditions: I = 0.15 M NaCl, 25 °C
Method: as §1, §2

[6] = Dissociation kinetics of Mn(II) complexes, transmetalation with Zn(II) (T2 relaxation); conditions: Zn(II) transmetalation, 25 °C, 0.15 M NaCl, pH 4.9–6.0
Method: The transmetalation reaction of MnL2 and MnL3 (1.4 mM) was monitored in the presence of 10, 20, 30, and 40 mol equiv of Zn(II) ions, by measuring water proton T2 relaxation times (60 MHz) as a function of time at 25 °C and in 0.15 M NaCl, in the pH range 4.9–6.0 (4.9, 5.0, 5.2, 5.5, and 6.0). To control pH, 50 mM N-methyl-piperazine (pH 4.9–5.5) or 50 mM MES (2-(4-morpholino)ethane-sulfonic acid) buffer (pH 5.7–6.0) was used. Transmetalation of MnL2 (0.3 mM) was also investigated in the presence of 10, 20, 30, and 40 mol equiv of Cu(II) ions, by monitoring the UV–vis absorbance at 274.0 nm as a function of time at 25 °C and in 0.15 M NaCl, in the pH range 4.7–5.0 (in 75 mM 1,4-dimethyl piperazine (DMP) buffer). No oxidation of the samples was observed. The program OriginPro 9 was used for the fitting of experimental data.
The dissociation kinetics was followed through monitoring Mn(II) release by water proton T2 measurements, at pH […], in the presence of 10- to 40-fold excess of Zn(II) and through UV–vis measurements in the presence of 10- to 40-fold excess of Cu(II) at pH 4.7–5.0 (only for MnL2). The observed dissociation rate constants, kobs, increase with increasing H^+ ion concentration (Figures 4, left and S20). They remain independent of Zn(II) concentration (Figures S18 and S19), but do show dependence on Cu(II) concentration (Figure S21).
In excess of the exchanging metal ion, the reaction is of pseudo-first order, and the rate is proportional to the total MnL2 or MnL3 concentration (eq 1), where kobs is the pseudo-first-order rate constant. [drawing 4] 1 In general, different dissociation pathways can coexist, implying the participation of protons and/or the exchanging metal ion,[47] as illustrated in Figure 5.
Based on this scheme, the overall rate for either Zn(II) or Cu(II) transmetalation can be given by eq 2, where M = Zn^2+ or Cu^2+ (for clarity, charges of the complexes are omitted). [drawing 5] 2 Here, the first and second terms correspond to the spontaneous dissociation of the nonprotonated and the monoprotonated complexes, respectively, the third term describes the proton-assisted dissociation of the monoprotonated complex, and the last two terms refer to the spontaneous dissociation of the dinuclear complex and metal-assisted dissociation of the monoprotonated MnL2 or MnL3 complex. [MnL]tot describes the total concentration of Mn(II) chelates ([MnL]tot = [MnL] + [MnHL] + [ZnLMn]). Since no obvious Zn(II) dependence (for any of the two systems) was observed, only the spontaneous and proton-assisted dissociation pathways were taken into consideration. Consequently, the observed rate constants can be expressed as in eq 3 with k0 = kMnL, k1 = kMnHL·KMnHL, and k2 = ^HkMnHL·KMnHL. [drawing 6] 3 The kobs rate constants were fitted to eq 3, and the calculated parameters are listed in Table 5 for the Zn(II) exchange. During the fitting procedure, KMnHL was fixed to the value obtained from the pH-potentiometric titrations.

Compound	log K2^H [1]	log K3^H [1]	log KH2ML [2]	log KHML [2]	log KML [2]	log KML [3]	log KML(OH) [3]	pMn [3]	log KHML [4]	log KML [4]	log KML(OH) [4]	log KML [5]	log KML(OH) [5]	k0 (spontaneous dissociation of the nonprotonated complex) [6]	k1 (spontaneous dissociation of the monoprotonated complex) [6] [M^–1 s^–1]	k2 (proton-assisted dissociation of the monoprotonated complex) [6]	log KML(OH) [2]	log KHML [5]
c1ccc(CN2CCOCCOCCNCc3cccc(n3)C2)nc1 [L2]	7.14(1)	2.1(1)	6.63(9)	7.23(7)	4.11(4)	10.25(1)	-10.89(3)	6.93	2.99(2)	13.36(1)	-10.97(2)	16.57(8)	-10.78(8)	(1.1 ± 0.3) × 10^–3 s^–1	737 ± 110	(4.5 ± 0.8) × 10^7 M^–2 s^–1	–	–
c1cc2nc(c1)CN(Cc1nc3ccccc3[nH]1)CCOCCOCCNC2 [L3]	5.85(1)	1.98(1)	–	6.72(6)	3.53(1)	9.74(1)	-9.78(1)	6.80	2.09(6)	12.09(1)	-9.33(2)	16.91(2)	-7.9(1)	(1.9 ± 0.3) × 10^–3 s^–1	912 ± 41	–	-10.93(1)	2.1(4)
